These results are taken from US20090137811A1 (published 2009).

Each structure is given as a SMILES string. “And” between values parts separate entries of the source, which are not always exact repeats. Equal entries are not always repeated.

`COc1cc2c(cc1OC)C(=O)C(C(=O)c1ccncc1)C2` (stereo not shown): the melting point was 204 to 207 °C and 203 to 206 °C.

A word on the melting point: it is the temperature of the solid-liquid transition.
